Patent US20230233469A1, “SEMI-SOLID FORMULATION FOR VOLUNTARY ORAL ADMINISTRATION OF BIOACTIVE COMPOUNDS TO RODENTS” (priority 2020, published 2023)

Conditions: 80 mg/Kg body weight in semi-solid pill
Text: Data are presented as mean±S.E.M. (n=6-8 experimental group).

CC(=O)CC(c1ccccc1)c1c(O)c2ccccc2oc1=O (centres unmarked) [warfarin]
day of euthanasia for critical signs of illness (e.g. bleeding): 8 days
day post-administration from which poor health status and evident signs of toxicity appeared: 4 days
